In patent publication US20180312493A1, “Antibiotic Compounds, Pharmaceutical Formulations Thereof And Methods And Uses Therefor” (Simon Fraser University, priority 2015, published 2018):
In brackets after ≈: the same amount, converted by molar mass.

Tests used:
MRSA Pyk = target: T1, MRSA Pyk (Staphylococcus aureus, UniProt Q6GG09); test: MRSA pyruvate kinase (PK) activity, continuous LDH-coupled assay; type: biochemical, methicillin resistant S. aureus (MRSA252)
T1 construct: made in house; host or cells: E. coli BL-21 (DE3)
T1 sequence (Q6GG09 whole entry): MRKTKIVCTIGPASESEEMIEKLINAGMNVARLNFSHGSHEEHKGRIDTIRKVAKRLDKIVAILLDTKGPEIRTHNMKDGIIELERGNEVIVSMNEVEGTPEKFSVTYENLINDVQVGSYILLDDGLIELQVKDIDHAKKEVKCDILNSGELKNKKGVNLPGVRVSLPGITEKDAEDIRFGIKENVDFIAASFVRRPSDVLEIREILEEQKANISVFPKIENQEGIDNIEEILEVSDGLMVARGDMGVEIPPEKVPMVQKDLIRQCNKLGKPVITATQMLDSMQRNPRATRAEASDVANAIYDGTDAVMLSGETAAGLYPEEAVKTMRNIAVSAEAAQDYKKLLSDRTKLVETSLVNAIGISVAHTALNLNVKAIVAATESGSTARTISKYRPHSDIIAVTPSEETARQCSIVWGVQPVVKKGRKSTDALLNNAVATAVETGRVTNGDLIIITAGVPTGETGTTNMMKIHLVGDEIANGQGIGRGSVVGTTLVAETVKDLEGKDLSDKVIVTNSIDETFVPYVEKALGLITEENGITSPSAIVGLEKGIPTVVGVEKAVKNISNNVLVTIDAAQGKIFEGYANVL
Method in brief: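 His-tagged MRSA PK (strain Sanger 252) and human PK isoforms expressed in E. coli BL-21 (DE3) and Ni-NTA purified, used at 15 nM in an LDH-coupled assay following NADH oxidation at 340 nm, 30° C, up to 5 min, ≤1% DMSO. IC50 from four-parameter variable-slope fit; Ki with PEP 2-20 mM, ADP fixed 2 mM, inhibitor 0-400 nM.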

[1] = tested on: A. baumannii (ATCC 19606); test: In vitro susceptibility, broth microdilution (MIC); type: cell-based; details: Acinetobacter baumannii, ATCC19606; A. baumannii ATCC 19606 (values without asterisk); read-out: Antimicrobial activity (MIC) A. baumannii
Text: (§1) Epidemic methicillin resistant S. aureus (MRSA) strain sequenced at the Sanger Centre (MRSA252, NRS71) was obtained from NARSA (Network on Antimicrobial Resistance in S. aureus). Methicillin sensitive S. aureus (ATCC 29213 and 25923), methicillin resistant S. aureus (ATCC BAA-1762), and Salmonella typhimurium (ATCC BAA-185) were obtained from ATCC, The Global Bioresource Center. Acinetobacter baumannii (ATCC 19606 and ATCC 17978), Klebsiella pneumonia (C238), vancomycin resistant Enterococci #2 (2010A) (VRE#2), MRSA (USA400, MW2) and Pseudomonas aeruginosa (PA0-1) were obtained from the laboratory of Dr B. B. Finlay at the University of British Columbia (Vancouver, Canada).
(§2) The antimicrobial activities of PK inhibitor candidates were determined using the 96-well microtiter standard 2-fold serial broth microdilution method as described by CLSI (formerly NCCLS) with the various gram-positive and gram-negative bacteria species mentioned above. Bacteria from a single colony were grown, overnight in either BHI Broth (VRE), mueller hinton broth (S. aureus 29213; MRSA USA400, A. baumannii 19606, MRSA BAA-1762) or L-broth (P. aeruginosa, S. typhimurium, K. pneumonia and A. baumannii 17978). Each compound was prepared in DMSO with 2-fold serial dilutions to give a final concentration of, 0.031 to 64 μg/ml. 10 μl of the compound solution was then added, in duplicate, to either, 190 μl of cation adjusted mueller hinton broth (CAMHB) or 190 μl CAMHB containing ˜2.5×10^5 CFU/ml of bacteria (final compound concentration 0.031 to 64 μg/ml). Culture plates were incubated for 18-24 h at 37° C., and optical density at 600 nm (OD600) was measured using a Benchmark Plus™ microplate spectrophotometer (Bio-Rad™). The absorbance control values for the series containing CAMHB and inhibitor were subtracted as background from the corresponding infected wells. Minimal inhibitory concentration (MIC) was defined as the lowest concentration of test compound leading to complete inhibition of cell growth in relation to compound-free control wells as determined by optical density. Vancomycin, methicillin and ciprofloxicin were used as reference compounds. All assays were run in triplicate or duplicate. Experiments were replicated at least twice to verify reproducibility using the above conditions.

MRSA (ATCC BAA-1762) = test: In vitro susceptibility, broth microdilution (MIC); type: cell-based, methicillin resistant S. aureus; details: Staphylococcus aureus; MRSA ATCC BAA-1762; read-out: Antimicrobial activity (MIC) MRSA ATCC BAA1762
Text: as §1, §2

VRE#2 (2010A) = test: In vitro susceptibility, broth microdilution (MIC); type: cell-based, vancomycin resistant Enterococci; details: VRE#2 (2010A); read-out: Antimicrobial activity (MIC) VRE#2
Text: as §1, §2

S. aureus (ATCC29213) = test: In vitro susceptibility, broth microdilution (MIC); type: cell-based; details: Staphylococcus aureus; S. aureus ATCC29213; 18-24 h, 37 C; read-out: Antimicrobial activity (MIC) S. aureus ATCC29213
Method in brief: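 CLSI 2-fold serial broth microdilution; K. pneumoniae C238 grown in L-broth, S. aureus ATCC 29213 in Mueller Hinton broth, plates incubated 18–24 h at 37 °C. MIC taken as lowest concentration giving complete growth inhibition by OD600 versus compound-free wells, background-subtracted.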

Question: With `CCNCCNC(=O)c1c(-c2cc3cc(Cl)ccc3[nH]2)[nH]c2cc(Br)ccc12` [Compound 137, 6-Bromo-5′-chloro-N-(2-(ethylamino)ethyl)-1H,1′H-[2,2′-biindole]-3-carboxamide] as the compound, how does the IC50 (MRSA Pyk) read?
Answer: < 100 nM

Question: And the MIC [1]?
Answer: 32 µg/mL (≈ 69.6 µM)

Question: What about the MIC (MRSA (ATCC BAA-1762)) of the same compound?
Answer: 8 µg/mL (≈ 17.4 µM)

Question: What about the MIC (VRE#2 (2010A)) of the same compound?
Answer: 8 µg/mL (≈ 17.4 µM)

Question: And the MIC (S. aureus (ATCC29213))?
Answer: 8 µg/mL (≈ 17.4 µM)

Question: How did the IC50 (MRSA Pyk) turn out when `CC(C)(C)NCCNC(=O)c1c(-c2cc3cc(Cl)ccc3[nH]2)[nH]c2cc(Br)ccc12` [Compound 138, 6-Bromo-N-(2-(tert-butylamino)ethyl)-5′-chloro-1H,1′H-[2,2′-biindole]-3-carboxamide] was run?
Answer: < 100 nM

Question: And the MIC [1]?
Answer: 64 µg/mL (≈ 131 µM)

Question: And the MIC (MRSA (ATCC BAA-1762))?
Answer: 8 µg/mL (≈ 16.4 µM)

Question: And the MIC (VRE#2 (2010A))?
Answer: 4 µg/mL (≈ 8.2 µM)

Question: What about the MIC (S. aureus (ATCC29213)) of the same compound?
Answer: 4 µg/mL (≈ 8.2 µM)

Question: `C[n+]1cccc(CNC(=O)c2c(-c3cc4cc(Cl)ccc4[nH]3)[nH]c3cc(Br)ccc23)c1` [Compound 148, 3-((6-bromo-5′-chloro-1H,1′H-[2,2′-biindole]-3-carboxamido)methyl)-1-methylpyridin-1-ium] was tested. Which IC50 (MRSA Pyk) did it give?
Answer: < 100 nM

Question: And the MIC [1]?
Answer: > 64 µg/mL

Question: And the MIC (MRSA (ATCC BAA-1762))?
Answer: 16 µg/mL

Question: And the MIC (VRE#2 (2010A))?
Answer: 16 µg/mL

Question: And the MIC (S. aureus (ATCC29213))?
Answer: 8 µg/mL

Question: How did the IC50 (MRSA Pyk) turn out when `C[n+]1ccc(CCNC(=O)c2c(-c3cc4cc(Cl)ccc4[nH]3)[nH]c3cc(Br)ccc23)cc1` [Compound 149, 4-(2-(6-bromo-5′-chloro-1H,1′H-[2,2′-biindole]-3-carboxamido)ethyl)-1-methylpyridin-1-ium] was run?
Answer: < 100 nM

Question: And the MIC [1]?
Answer: > 64 µg/mL

Question: And the MIC (MRSA (ATCC BAA-1762))?
Answer: 16 µg/mL

Question: What about the MIC (VRE#2 (2010A)) of the same compound?
Answer: 16 µg/mL

Question: And the MIC (S. aureus (ATCC29213))?
Answer: 16 µg/mL

Question: `C[n+]1ccccc1CCNC(=O)c1c(-c2cc3cc(Cl)ccc3[nH]2)[nH]c2cc(Br)ccc12` [Compound 150] was tested. Which IC50 (MRSA Pyk) did it give?
Answer: < 100 nM

Question: And the MIC [1]?
Answer: > 64 µg/mL

Question: And the MIC (MRSA (ATCC BAA-1762))?
Answer: 16 µg/mL

Question: And the MIC (VRE#2 (2010A))?
Answer: 32 µg/mL

Question: What about the MIC (S. aureus (ATCC29213)) of the same compound?
Answer: 16 µg/mL

Question: Which results are given for `O=C(Nc1ccc(Cl)cc1)Nc1nc2cc(Cl)ccc2s1` [Compound 172, 1-(5-chlorobenzo[d]thiazol-2-yl)-3-(4-chlorophenyl)urea]?
Answer: MIC [1]: > 64 µg/mL; MIC (MRSA (ATCC BAA-1762)): 0.5 µg/mL (≈ 1.48 µM); MIC (VRE#2 (2010A)): 1 µg/mL (≈ 2.96 µM); MIC (S. aureus (ATCC29213)): 0.5 µg/mL (≈ 1.48 µM)

Question: Which MIC [1] does the source give for `CC(C)(C)NC(=O)Nc1nc2cc(Br)ccc2s1` [Compound 173, 1-(5-bromobenzo[d]thiazol-2-yl)-3-(tert-butyl)urea] here?
Answer: > 64 µg/mL

Question: And the MIC (MRSA (ATCC BAA-1762))?
Answer: 16 µg/mL (≈ 48.7 µM)

Question: What about the MIC (VRE#2 (2010A)) of the same compound?
Answer: 32 µg/mL (≈ 97.5 µM)

Question: And the MIC (S. aureus (ATCC29213))?
Answer: 16 µg/mL (≈ 48.7 µM)

Question: Which results are given for `O=C(Nc1nc2cc(Br)ccc2s1)NC1CCCCCC1` [Compound 174, 1-(5-bromobenzo[d]thiazol-2-yl)-3-cycloheptylurea]?
Answer: MIC [1]: > 64 µg/mL; MIC (MRSA (ATCC BAA-1762)): 1 µg/mL (≈ 2.72 µM); MIC (VRE#2 (2010A)): 1 µg/mL (≈ 2.72 µM); MIC (S. aureus (ATCC29213)): 1 µg/mL (≈ 2.72 µM)

Question: How did the MIC [1] turn out when `CCNC(=O)Nc1nc2cc(Br)ccc2s1` [Compound 176, 1-(5-bromobenzo[d]thiazol-2-yl)-3-ethylurea] was run?
Answer: > 64 µg/mL

Question: What about the MIC (MRSA (ATCC BAA-1762)) of the same compound?
Answer: 8 µg/mL (≈ 26.7 µM)

Question: What about the MIC (VRE#2 (2010A)) of the same compound?
Answer: 16 µg/mL (≈ 53.3 µM)

Question: And the MIC (S. aureus (ATCC29213))?
Answer: 8 µg/mL (≈ 26.7 µM)

Question: Which results are given for `CN(C)CC(=O)OCCCNC(=O)c1c(-c2cc3cc(Cl)ccc3[nH]2)[nH]c2cc(Br)ccc12` [Compound 184, 3-(6-Bromo-5′-chloro-1H, 1′H-[2,2′-biindole]-3-carboxamido)propyl Dimethylglycinate]?
Answer: IC50 (MRSA Pyk): < 100 nM; MIC [1]: > 64 µg/mL; MIC (MRSA (ATCC BAA-1762)): 16 µg/mL (≈ 30.1 µM); MIC (VRE#2 (2010A)): > 64 µg/mL; MIC (S. aureus (ATCC29213)): > 64 µg/mL
